# Conditions: mouse, in vivo, 25 mg/kg, pH 6
# Method: Experiments were performed to determine blood levels of Gefitinib formulations after both intravenous and oral dosing. […] Groups of three male mice (B6D2F1) were used for the studies. HPLC-MS analyses were performed on heparinized mouse plasma samples obtained typically at 0 hr, 0.08 hr, 0.5 hr, 1 hr, 2 hr, 4 hr, 7 hr, 16 hr and 24 hr after bolus IV injection. After oral feeding, the analyses were performed at 0 hr, 0.5 hr, 1 hr, 2 hr, 4 hr, 8 hr, 16 hr and 24 hr. To determine the level of each drug, the drug was first isolated from plasma with a sample pre-treatment. Acetonitrile were used to remove proteins in samples. An isocratic HPLC-MS/MS method was then used to separate the drugs from any potential interference. Drug levels were measured by MS detection with a multiple reaction monitoring (MRM) mode. PK data was analyzed using the WinNonlin program (ver. 5.2, Pharsight) compartmental models of analysis.
# The drug was administered orally and the dosing strength was 25 mg/kg. The drug was also administered intravenously and the dosing strength was 25 mg/kg in 15% Cremophor EL® and in 10 mM sodium phosphate buffer (pH 6.0). The AUC (31.3) obtained from the IV administration was used for calculating the relative bioavailability (BA).
substance,measurement,value
"3,4-Di(oleoyloxy)-decaethylene glycol-benzoate [DDGB]",relative bioavailability (BA),56.0%

# Reference: patent US20100210518A1, “Peg-lipid conjugates for increasing the solubility of drug compounds” (priority 2009, published 2010)
